Experimental data from patent US20060281736A1, “Product comprising at least one phosphatase cdc25 inhibitor combined with at least one other anticancer agent” (priority 2003, published 2006).
pIC50: −log10 of the molar value. Where a name gives a salt, the structure may show the parent alone.

What was measured:
[1] = test system: HT-29 cell line (human colon cancer cells); assay: Test of cell proliferation of the HT-29 cells (WST1), products individually or in combination; format: cell-based; settings: 120 hours
Method: A) Test of Cell Proliferation of the HT-29 Cells
The protocol for the test used to obtain the results shown is described below:
The HT-29 cell line (human colon cancer cells) were acquired from the American Tissue Culture Collection (Rockville, Md., USA).
The HT-29 cells (2000 cells/well) are cultured in 96-well plates. On day 0, these cells are seeded in 90 μl of Dulbecco's modified Eagle medium (Gibco-Brl, Cergy-Pontoise, France) completed with 10% foetal calf serum inactived by heating (Gibco-Brl, Cergy-Pontoise, France), 50000 units/l of penicillin and 50 mg/l streptomycin (Gibco-Brl, Cergy-Pontoise, France), and 2 mM of glutamine (Gibco-Brl, Cergy-Pontoise, France).
The cells were treated simultaneously with concentrations of two products individually or in combination on Day 1 and for 120 hours.
At the end of the of this period (D6), quantification of cell proliferation is evaluated by a colorimetric test based on the cleavage of the tetrazolium salt WST1 by mitochondrial dehydrogenases in living cells leading to the formation of formazan (Boehringer Mannheim, Meylan, France). These tests are carried out at least in duplicate with 4 determinations for each individual product and for each combination tested. This allows determination of the number of living cells at the end of each treatment.

[2] = test system: Mia-PaCa2 (human pancreas cancer cells); assay: Antiproliferative activity on Mia-Paca2 cells (WST1); format: cell-based; settings: MIA PaCa-2, 96 hours treatment, read-out: IC50 on the cell proliferation of Mia-Paca2 lines
Method: ii) Characterization of the Antiproliferative Activity:
By way of example, the effect of a treatment on two human cell lines Mia-Paca2 and DU145 with the compounds of the examples described previously will be studied. The cell lines DU145 (human prostate cancer cells) and Mia-PaCa2 (human pancreas cancer cells) were acquired from the American Tissue Culture Collection (Rockville, Md., USA). The cells placed in 80 μl of Dulbecco's Modified Eagle's medium (Gibco-Brl, Cergy-Pontoise, France) completed with 10% foetal calf serum inactivated by heating (Gibco-Brl, Cergy-Pontoise, France), 50,000 units/l of penicillin and 50 mg/l of streptomycin (Gibco-Brl, Cergy-Pontoise, France), and 2 mM of glutamine (Gibco-Brl, Cergy-Pontoise, France) were seeded on a 96-well plate on day 0. The cells were treated on day 1 for 96 hours with increasing concentrations of each of the compounds to be tested up to 10 μM. At the end of this period, quantification of cell proliferation is evaluated by a colorimetric test based on the cleavage of the tetrazolium salt WST1 by the mitochondrial dehydrogenases in viable cells leading to the formation of formazan (Boehringer Mannheim, Meylan, France). These tests are carried out in duplicate with 8 determinations per concentration tested. For each compound to be tested, the values included in the linear part of the sigmoid were retained for a linear regression analysis and used to estimate the inhibitory concentration IC50. The products are solubilized in dimethylsulphoxide (DMSO) at 10^−2 M and finally used in culture with 0.1% DMSO.

Compound | pIC50 [2] | also measured
4-(2-bromophenyl)-1-(2-(1-((4-cyano-3-methoxy)phenylmethyl)imidazo-5-yl)-1-oxoethyl)-1,2-dihydro-8-fluoroimidazo[1,2a][1,4]-benzodiazepine [Compound B7] |  | % of surviving cells ([1]; Combination 7: Compound B7 (10^−5 M) individually): 92%
CO[C@@]12[C@H](COC(N)=O)C3=C(C(=O)C(C)=C(N)C3=O)N1C[C@@H]1N[C@@H]12 [Compound B2, mitomycin C] |  | % of surviving cells ([1]; Combination 2: Compound B2 (10^−7 M) individually): 49%; % of surviving cells ([1]; Combination 25: Compound B2 (5 × 10^−8 M) individually): 82%; % of surviving cells ([1]; Combination 32: Compound B2 (5 × 10^−8 M) individually): 88%; % of surviving cells ([1]; Combination 33: Compound B2 (5 × 10^−8 M) individually): 88%
N.N.[Cl][Pt][Cl] [Compound B4, cisplatin] |  | % of surviving cells ([1]; Combination 4: Compound B4 (10^−5 M) individually): 33%; % of surviving cells ([1]; Combination 28: Compound B4 (10^−5 M) individually): 75%; % of surviving cells ([1]; Combination 35: Compound B4 (10^−5 M) individually): 85%
CN(Cc1cnc2nc(N)nc(N)c2n1)c1ccc(C(=O)N[C@@H](CCC(=O)O)C(=O)O)cc1 [Compound B5, methotrexate] |  | % of surviving cells ([1]; Combination 5: Compound B5 (5 × 10^−8 M) individually): 83%
CCc1c2c(nc3ccc(O)cc13)-c1cc3c(c(=O)n1C2)COC(=O)[C@]3(O)CC [Compound B11, SN-38] |  | % of surviving cells ([1]; Combination 11: Compound B11 (5 × 10^−9 M) individually): 98%; % of surviving cells ([1]; Combination 24: Compound B11 (10^−8 M) individually): 73%; % of surviving cells ([1]; Combination 30: Compound B11 (10^−8 M) individually): 67%
Cc1nc2c(s1)C(=O)C=C(NCCN1CCOCC1)C2=O [Example 1, 2-methyl-5-{[2-(4-morpholinyl)ethyl]amino}-1,3-benzothiazole-4,7-dione] | ≥ 5.00 | 
Cc1nc2c(s1)C(=O)C=C(NCCN(C)C)C2=O [Example 2, 5-{[2-(dimethylamino)ethyl]amino}-2-methyl-1,3-benzothiazole-4,7-dione hydrochloride] | ≥ 5.00 | 
Cc1nc2c(s1)C(=O)C=C(NCCCCCCN(C)C)C2=O [Example 3, 5-{[6-(dimethylamino)hexyl]amino}-2-methyl-1,3-benzothiazole-4,7-dione] | ≥ 5.00 | 
Cc1nc2c(s1)C(=O)C=C(NCC(C)(C)CN(C)C)C2=O [Example 4, 5-{[3-(dimethylamino)-2,2-dimethylpropyl]amino}-2-methyl-1,3-benzothiazole-4,7-dione] | ≥ 5.00 | 
Cc1nc2c(s1)C(=O)C=C(NCCCN1CCN(C)CC1)C2=O [Example 5, 2-methyl-5-{[3-(4-methyl-1-piperazinyl)propyl]amino}-1,3-benzothiazole-4,7-dione] | ≥ 5.00 | 
CCCCCC(CC)NC1=CC(=O)c2sc(C)nc2C1=O (stereo not drawn) [Example 6, 5-[(1-ethylhexyl)amino]-2-methyl-1,3-benzothiazole-4,7-dione] | ≥ 5.00 | 
Cc1nc2c(s1)C(=O)C=C(NCC13CC4CC(CC(C4)C1)C3)C2=O [Example 7, 5-[(1-adamantylmethyl)amino]-2-methyl-1,3-benzothiazole-4,7-dione] | ≥ 5.00 | 
Cc1nc2c(s1)C(=O)C=C(NCc1cccs1)C2=O [Example 8, 2-methyl-5-[(2-thienylmethyl)amino]-1,3-benzothiazole-4,7-dione] | ≥ 5.00 | 
Cc1nc2c(s1)C(=O)C=C(NCc1cccc(Cl)c1)C2=O [Example 9, 5-[(3-chlorobenzyl)amino]-2-methyl-1,3-benzothiazole-4,7-dione] | ≥ 5.00 | 
Cc1nc2c(s1)C(=O)C=C(N1CCN(Cc3ccccc3)CC1)C2=O [Example 14, 5-(4-benzyl-1-piperazinyl)-2-methyl-1,3-benzothiazole-4,7-dione] | ≥ 5.00 | 
COCCNC1=CC(=O)c2sc(C)nc2C1=O [Example 18, 5-[(2-methoxyethyl)amino]-2-methyl-1,3-benzothiazole-4,7-dione] | ≥ 5.00 | 
Cc1nc2c(s1)C(=O)C=C(NCCN1CCCC1)C2=O [Example 19, 2-methyl-5-[(2-pyrrolidin-1-ylethyl)amino]-1,3-benzothiazole-4,7-dione] | ≥ 5.00 | 
Cc1nc2c(s1)C(=O)C=C(NCCN1CCCCC1)C2=O [Example 20, 2-methyl-5-[(2-piperidin-1-ylethyl)amino]-1,3-benzothiazole-4,7-dione] | ≥ 5.00 | 
Cc1nc2c(s1)C(=O)C=C(NCCN(C(C)C)C(C)C)C2=O [Example 21, 5-{[2-(diisopropylamino)ethyl]amino}-2-methyl-1,3-benzothiazole-4,7-dione] | ≥ 5.00 | 
Cc1nc2c(s1)C(=O)C=C(NC1CCN(Cc3ccccc3)C1)C2=O (stereo not drawn) [Example 22, 5-[(1-benzylpyrrolidin-3-yl)amino]-2-methyl-1,3-benzothiazole-4,7-dione] | ≥ 5.00 | 
Cc1nc2c(s1)C(=O)C=C(NCCCN(C)C)C2=O [Example 23, 5-{[3-(dimethylamino)propyl]amino}-2-methyl-1,3-benzothiazole-4,7-dione] | ≥ 5.00 | 
Cc1nc2c(s1)C(=O)C=C(NCCC1CCCN1C)C2=O (stereo not drawn) [Example 24, 2-methyl-5-{[2-(1-methylpyrrolidin-2-yl)ethyl]amino}-1,3-benzothiazole-4,7-dione] | ≥ 5.00 | 

Now from value to compound, other results behind:

pIC50 [2] | Compound | also measured
≥ 5.00 | Cc1nc2c(s1)C(=O)C=C(NCCCN1CCCCC1C)C2=O (stereo not drawn) [Example 25, 2-methyl-5-{[3-(2-methylpiperidin-1-yl)propyl]amino)-1,3-benzothiazole-4,7-dione] | 
≥ 5.00 | Cc1nc2c(s1)C(=O)C=C(NCCCCN(C)C)C2=O [Example 26, 5-{[4-(dimethylamino)butyl]amino}-2-methyl-1,3-benzothiazole-4,7-dione] | 
≥ 5.00 | Cc1nc2c(s1)C(=O)C=C(NCCCCCN(C)C)C2=O [Example 27, 5-{[5-(dimethylamino)pentyl]amino}-2-methyl-1,3-benzothiazole-4,7-dione] | 
≥ 5.00 | Cc1nc2c(s1)C(=O)C=C(NC1CCc3ccccc31)C2=O (stereo not drawn) [Example 28, 5-(2,3-dihydro-1H-inden-1-ylamino)-2-methyl-1,3-benzothiazole-4,7-dione] | 
≥ 5.00 | Cc1nc2c(s1)C(=O)C=C(N(CCN(C)C)Cc1ccccc1)C2=O [Example 29, 5-{benzyl[2-(dimethylamino)ethyl]amino}-2-methyl-1,3-benzothiazole-4,7-dione] | 
≥ 5.00 | Cc1nc2c(s1)C(=O)C=C(NCCCN(C)C(=O)OC(C)(C)C)C2=O [Example 30, tert-butyl methyl{3-[(2-methyl-4,7-dioxo-4,7-dihydro-1,3-benzothiazol-5-yl)amino]propyl}carbamate] | 
≥ 5.00 | Cc1nc2c(s1)C(=O)C=C(NCCCNC(=O)OC(C)(C)C)C2=O [Example 31, tert-butyl 3-[(2-methyl-4,7-dioxo-4,7-dihydro-1,3-benzothiazol-5-yl)amino]propylcarbamate] | 
≥ 5.00 | CNCCCNC1=CC(=O)c2sc(C)nc2C1=O [Example 32, 2-methyl-5-{[3-(methylamino)propyl]amino}-1,3-benzothiazole-4,7-dione hydrochloride] | 
≥ 5.00 | Cc1nc2c(s1)C(=O)C(Cl)=C(NCCN(C)C)C2=O [Example 34, 6-chloro-5-{[2-(dimethylamino)ethyl]amino}-2-methyl-1,3-benzothiazole-4,7-dione] | 
≥ 5.00 | CCCCSC1=C(NCCN(C)C)C(=O)c2nc(C)sc2C1=O [Example 36, 6-(butylthio)-5-{[2-(dimethylamino)ethyl]amino}-2-methyl-1,3-benzothiazole-4,7-dione] | 
≥ 5.00 | CN(C)CCNC1=CC(=O)c2sc(CN3CCOCC3)nc2C1=O [Example 37, 5-{[2-(dimethylamino)ethyl]amino}-2-(morpholin-4-ylmethyl)-1,3-benzothiazole-4,7-dione] | 
≥ 5.00 | CN(C)CCNC1=CC(=O)c2sc(CN3CCN(c4ccccc4)CC3)nc2C1=O [Example 38, 5-{1[2-(dimethylamino)ethyl]amino}-2-[(4-phenylpiperazin-1-yl)methyl]-1,3-benzothiazole-4,7-dione] | 
≥ 5.00 | CN(C)CCNC1=CC(=O)c2sc(CN3CCCCC3)nc2C1=O [Example 39, 5-{[2-(dimethylamino)ethyl]amino}-2-(piperidin-1-ylmethyl)-1,3-benzothiazole-4,7-dione] | 
